Assay results taken from ChEMBL document CHEMBL1125524, “Adenosine A1 antagonists. 2. Structure-activity relationships on diuretic activities and protective effects against acute renal failure” (J Med Chem, 1992).
“And” between values parts separate entries of the source, which are not always exact repeats. Equal entries are not always repeated.

How the values were obtained:
Rattus norvegicus [1] = assay: Ratio of urinary excretion value (urinary volume) in treated rats to that in control rats, at a peroral dose of 0.01 mg/Kg; type: functional, Urine
Rattus norvegicus [2] = assay: Ratio of sodium ion/potassium ion concentration in treated rats to that in control rats, at a peroral dose of 1.6 mg/Kg; type: functional
Rattus norvegicus [3] = assay: Serum creatinine concentration measured after intraperitoneal administration of 0.1 mg/kg of compound to rats(vehicle 5.43+/-0.11); type: functional
Rattus norvegicus [4] = assay: Effect on urinary excretion potassium and sodium after oral administration of 0.01 mg/kg to rats(potassium and sodium excretion in control rat is 0.180+/-0.017); type: functional, Urine
Rattus norvegicus [5] = species: Rattus norvegicus; assay: Percent inhibition of serum creatinine by the compound given as ratio of Cr value in treated to vehicle treated ones; type: functional
Rattus norvegicus [6] = assay: Effect on urinary excretion potassium and sodium after oral administration of 0.1 mg/kg to rats(potassium and sodium excretion in control rat is 0.147+/-0.015); type: functional, Urine
Rattus norvegicus [7] = assay: Ratio of sodium ion/potassium ion concentration in treated rats to that in control rats, at a peroral dose of 0.1 mg/Kg; type: functional
Rattus norvegicus [8] = assay: Oral diuretic activity was measured after oral administration of 0.01 mg/kg to rats(control volume is 1.05+/-0.11); type: functional, Urine
Adenosine A2 receptor = Adenosine A2 receptor (Rattus norvegicus, UniProt P29276+P30543)
Rattus norvegicus [9] = assay: Effect on urinary excretion potassium and sodium after oral administration of 0.4 mg/kg to rats(potassium and sodium excretion in control rat is 0.0.169+/-0.012); type: functional, Urine
Rattus norvegicus [10] = assay: Urea nitrogen concentration measured after intraperitoneal administration of 0.1 mg/kg of compound to rats(vehicle 141.3+/-8.3); type: functional
Rattus norvegicus [11] = assay: Oral diuretic activity was measured after oral administration of 0.4 mg/kg to rats(control volume is 0.97+/-0.05); type: functional, Urine
Rattus norvegicus [12] = assay: Ratio of urinary excretion value (urinary volume) in treated rats to that in control rats, at a peroral dose of 0.4 mg/Kg; type: functional, Urine
Rattus norvegicus [13] = assay: Ratio of sodium ion/potassium ion concentration in treated rats to that in control rats, at a peroral dose of 0.01 mg/Kg; type: functional
Rattus norvegicus [14] = assay: Ratio of sodium ion/potassium ion concentration in treated rats to that in control rats, at a peroral dose of 0.4 mg/Kg; type: functional
Rattus norvegicus [15] = assay: Ratio of urinary excretion value (urinary volume) in treated rats to that in control rats, at a peroral dose of 0.1 mg/Kg; type: functional, Urine
Rattus norvegicus [16] = assay: Ratio of urinary excretion value (Na+ concentration) in treated rats to that in control rats, at a peroral dose of 1.6 mg/Kg; type: functional, Urine
Rattus norvegicus [17] = assay: Oral diuretic activity was measured after oral administration of 0.1 mg/kg to rats(control volume is 0.96+/-0.09); type: functional, Urine
Rattus norvegicus [18] = assay: Ratio of urinary excretion value (Na+ concentration) in treated rats to that in control rats, at a peroral dose of 0.01 mg/Kg; type: functional, Urine
Rattus norvegicus [19] = assay: Urea nitrogen concentration measured after intraperitoneal administration of 1 mg/kg of compound to rats(vehicle 151.5+/-7.4); type: functional
Rattus norvegicus [20] = assay: Effect on urinary excretion potassium and sodium after oral administration of 1.6 mg/kg to rats(potassium and sodium excretion in control rat is 0.189+/-0.005); type: functional, Urine
Rattus norvegicus [21] = assay: Oral diuretic activity was measured after oral administration of 1.6 mg/kg to rats(control volume is 1.12+/-0.05); type: functional, Urine
Rattus norvegicus [22] = assay: Serum creatinine concentration measured after intraperitoneal administration of 1 mg/kg of compound to rats(vehicle 4.5+/-0.24); type: functional
Rattus norvegicus [23] = assay: Ratio of urinary excretion value (Na+ concentration) in treated rats to that in control rats, at a peroral dose of 0.4 mg/Kg; type: functional, Urine
Rattus norvegicus [24] = assay: Ratio of urinary excretion value (urinary volume) in treated rats to that in control rats, at a peroral dose of 1.6 mg/Kg; type: functional, Urine
Rattus norvegicus [25] = assay: Ratio of urinary excretion value (Na+ concentration) in treated rats to that in control rats, at a peroral dose of 0.1 mg/Kg; type: functional, Urine
Rattus norvegicus [26] = assay: Ratio of urinary excretion value (urinary volume) in treated rats to that in control rats, at a peroral dose of 6.25 mg/Kg; type: functional, Urine
Rattus norvegicus [27] = assay: Effect on urinary excretion potassium and sodium after oral administration of 0.4 mg/kg to rats(potassium and sodium excretion in control rat is 0.175+/-0.014); type: functional, Urine
Adenosine receptor A1 = target: T1, Adenosine receptor A1 (Rattus norvegicus, UniProt P25099)
T1 sequence (P25099 whole entry): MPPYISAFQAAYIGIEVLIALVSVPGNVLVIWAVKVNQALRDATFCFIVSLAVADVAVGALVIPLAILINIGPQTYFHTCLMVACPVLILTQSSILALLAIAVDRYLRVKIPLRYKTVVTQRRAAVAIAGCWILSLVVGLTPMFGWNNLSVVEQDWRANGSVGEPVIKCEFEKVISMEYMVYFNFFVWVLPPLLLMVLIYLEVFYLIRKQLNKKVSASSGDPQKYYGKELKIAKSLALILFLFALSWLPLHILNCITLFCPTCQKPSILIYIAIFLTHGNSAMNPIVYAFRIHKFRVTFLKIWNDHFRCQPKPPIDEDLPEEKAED
Description: Binding affinity towards adenosine A1 receptor in rat forebrain membranes using N6-[3H]cyclohexyladenosine

Rattus norvegicus [28] = assay: Ratio of urinary excretion value (urinary volume) in treated rats to that in control rats, at a peroral dose of 25 mg/Kg; type: functional, Urine
Rattus norvegicus [29] = assay: Ratio of urinary excretion value (Na+ concentration) in treated rats to that in control rats, at a peroral dose of 6.25 mg/Kg; type: functional, Urine
Rattus norvegicus [30] = assay: Effect on urinary excretion potassium and sodium after oral administration of 1.6 mg/kg to rats(potassium and sodium excretion in control rat is 0.122+/-0.008); type: functional, Urine
Rattus norvegicus [31] = assay: Percent inhibition of serum creatinine by the compound given as ratio of Cr value in treated to vehicle treated ones after intraperitoneal administration of 1 mg/kg of compound to rats(vehicle 5.43+/-0.11); type: functional; conditions: ip
Rattus norvegicus [32] = assay: Oral diuretic activity was measured after oral administration of 1.6 mg/kg to rats(control volume is 0.83+/-0.07); type: functional, Urine
Rattus norvegicus [33] = assay: Ratio of urinary excretion value (Na+ concentration) in treated rats to that in control rats, at a peroral dose of 25 mg/Kg; type: functional, Urine
Rattus norvegicus [34] = assay: Urea nitrogen concentration measured after intraperitoneal administration of 1 mg/kg of compound to rats(vehicle 182.5+/-3.4); type: functional
Rattus norvegicus [35] = assay: Oral diuretic activity was measured after oral administration of 25 mg/kg to rats(control volume is […]+/-[…]); type: functional, Urine
Rattus norvegicus [36] = assay: Effect on urinary excretion potassium and sodium after oral administration of 25 mg/kg to rats(potassium and sodium excretion in control rat is […]+/-[…]); type: functional, Urine
Rattus norvegicus [37] = assay: Serum creatinine concentration measured after intraperitoneal administration of 1 mg/kg of compound to rats(vehicle 5.43+/-0.11); type: functional
Rattus norvegicus [38] = assay: Percent inhibition of Urea nitrogen by the compound given as ratio of UN value in treated to vehicle treated ones after intraperitoneal administration of 1 mg/kg of compound to rats(vehicle 182.5+/-3.4); type: functional; conditions: ip
Rattus norvegicus [39] = assay: Ratio of sodium ion/potassium ion concentration in treated rats to that in control rats, at a peroral dose of 25 mg/Kg; type: functional
Rattus norvegicus [40] = assay: Oral diuretic activity was measured after oral administration of 0.4 mg/kg to rats(control volume is 0.94+/-0.03); type: functional, Urine

In the case of `CCCCn1c(=O)c2nc(C34CC5CC(CC3C5)C4)[nH]c2n(CCCC)c1=O`, the T/C (Rattus norvegicus [1]) is reported as 0.74, the “Na+/K+” value (Rattus norvegicus [2]) is reported as 1.61 and the Cr (Rattus norvegicus [3]) is reported as 2.63 mg/dL. For the same compound, the Na (Rattus norvegicus [4]) was 0.176 m equiv 6hr-1 100g-1, the Inhibition (Rattus norvegicus [5]) was 45% and 19% and the Na (Rattus norvegicus [6]) was 0.279 m equiv 6hr-1 100g-1. The “Na+/K+” value (Rattus norvegicus [7]) was 1.58, the Urine volume (Rattus norvegicus [8]) was 0.78 ml 6hr-1 100g-1 and the Ki (Adenosine A2 receptor) was 1100 nM. For the same compound, the Na (Rattus norvegicus [9]) was 0.412 m equiv 6hr-1 100g-1, the UN (Rattus norvegicus [10]) was 119.4 mg/dL and the Urine volume (Rattus norvegicus [11]) was 2.5 ml 6hr-1 100g-1. The T/C (Rattus norvegicus [12]) was 2.58, the “Na+/K+” value (Rattus norvegicus [13]) was 1.05 and the “Na+/K+” value (Rattus norvegicus [14]) was 1.89. It also gave a T/C (Rattus norvegicus [15]) of 1.83, a T/C (Rattus norvegicus [16]) of 2.26 and a Urine volume (Rattus norvegicus [17]) of 1.76 ml 6hr-1 100g-1. For the same compound, the T/C (Rattus norvegicus [18]) was 0.98, the UN (Rattus norvegicus [19]) was 62.1 mg/dL and the Na (Rattus norvegicus [20]) was 0.426 m equiv 6hr-1 100g-1. It also gave a Urine volume (Rattus norvegicus [21]) of 2.52 ml 6hr-1 100g-1, a Cr (Rattus norvegicus [22]) of 2.82 mg/dL and a T/C (Rattus norvegicus [23]) of 2.45. It also gave a T/C (Rattus norvegicus [24]) of 2.25 and a T/C (Rattus norvegicus [25]) of 1.89.
`CCCn1c(=O)c2nc(C(C3CC3)C3CC3)[nH]c2n(CCC)c1=O` was tested, and the T/C (Rattus norvegicus [26]) was 2.39, the “Na+/K+” value (Rattus norvegicus [2]) was 1.56 and the Na (Rattus norvegicus [27]) was 0.255 m equiv 6hr-1 100g-1. It also gave a Ki (Adenosine receptor A1) of 0.99 nM, a T/C (Rattus norvegicus [28]) of 2.44 and a T/C (Rattus norvegicus [29]) of 2.69. It also gave a Ki (Adenosine A2 receptor) of 430 nM, a Na (Rattus norvegicus [30]) of 0.284 m equiv 6hr-1 100g-1 and an inhibition in vivo at 1 mg/kg (Rattus norvegicus [31]) of 45%. It also gave a Urine volume (Rattus norvegicus [32]) of 1.83 ml 6hr-1 100g-1, a T/C (Rattus norvegicus [33]) of 2.16 and a UN (Rattus norvegicus [34]) of 107.6 mg/dL. For the same compound, the Urine volume (Rattus norvegicus [35]) was 2.07 ml 6hr-1 100g-1, the T/C (Rattus norvegicus [12]) was 1.33 and the “Na+/K+” value (Rattus norvegicus [14]) was 1.27. For the same compound, the Na (Rattus norvegicus [36]) was 0.35 m equiv 6hr-1 100g-1, the T/C (Rattus norvegicus [16]) was 2.33 and the Cr (Rattus norvegicus [37]) was 5.43 mg/dL. For the same compound, the inhibition in vivo at 1 mg/kg (Rattus norvegicus [38]) was 41%, the T/C (Rattus norvegicus [23]) was 1.45 and the T/C (Rattus norvegicus [24]) was 2.2. The “Na+/K+” value (Rattus norvegicus [39]) was 1.71 and the Urine volume (Rattus norvegicus [40]) was 1.25 ml 6hr-1 100g-1.
